Data as given in patent US11643396B2, “BRD4-kinase inhibitors as cancer therapeutics” (H. LEE MOFFITT CANCER CENTER AND RESEARCH INSTITUTE, INC., priority 2015, dated 2023).
Where “and” joins values, the source holds several entries; their conditions need not be identical. Equal values may be shown once. Read-outs that look alike come from different tables or passages of the source.

Key:
BRD4 = BRD4 (Homo sapiens (Human), UniProt O60885); assay: Differential Scanning Fluorimetry (DSF), stability of BRD4 upon ligand binding; details: for DSF ΔTm / IC50: Table 1; for IC50: estimated from DSF; for DSF: BRD4 ΔTm: 100 μM protein, 4 μM compound and 2% DMSO, Table 4
HEK293 = assay: Cellular IC50, HEK293; format: cell-based; details: Homo sapiens
UKE-1 = assay: Cellular IC50, UKE-1; format: cell-based; details: UKE1
MV4-11 AML cells [1] = assay: Cellular IC50, MV-4-11; format: cell-based; details: Homo sapiens
Experimental: Cellular activity of promising compounds is assessed using MM.1S and MV4-11 AML cells using c-Myc levels as biomarker (6-12 hr treatment) and antiproliferative activity (48-72 hr treatment) as described (Ciceri et al., Dual kinase-bromodomain inhibitors for rationally designed polypharmacology. Nat Chem Biol 2014).

BRDT-1 = BRDT-1 (Homo sapiens (Human), UniProt Q58F21); assay: Alpha Screen (Reaction Biology); format: binding; details: Reaction Biology data
BRD4-1 = BRD4-1 (Homo sapiens (Human), UniProt O60885); assay: Alpha Screen (Reaction Biology); format: binding; details: Reaction Biology data
BRD4-2 = BRD4-2 (Homo sapiens (Human), UniProt O60885); assay: Alpha Screen (Reaction Biology); format: binding; details: Reaction Biology data; value in parentheses
MM.1S cells = assay: Cellular IC50 (cell survival, MTT), MM.1S; format: cell-based
Text: Increased anti-proliferative effects are correlated with an early, strong reduction of both pSTAT2 and c-Myc levels. The inhibitors highlighted are the most promising equipotent dual BET-JAK2 inhibitors of this series.

c-Myc = details: literature; cited from earlier work
Solubility in PBS buffer = format: physicochemical
MV4-11 AML cells [2] = details: literature; read-out: IC50, inhibition of proliferation of MV4-11 AML cells; cited from earlier work
JAK2 = JAK2 (Homo sapiens (Human), UniProt O60674); assay: HotSpot Kinase assay (Reaction Biology); format: biochemical; details: Reaction Biology data
Saos-2 = assay: Cellular IC50, Saos-2; format: cell-based; details: Homo sapiens
[3] = Homo sapiens, MM1.S, read-out: Cellular IC50 MM.1S

JAK2, sequence (O60674 whole entry): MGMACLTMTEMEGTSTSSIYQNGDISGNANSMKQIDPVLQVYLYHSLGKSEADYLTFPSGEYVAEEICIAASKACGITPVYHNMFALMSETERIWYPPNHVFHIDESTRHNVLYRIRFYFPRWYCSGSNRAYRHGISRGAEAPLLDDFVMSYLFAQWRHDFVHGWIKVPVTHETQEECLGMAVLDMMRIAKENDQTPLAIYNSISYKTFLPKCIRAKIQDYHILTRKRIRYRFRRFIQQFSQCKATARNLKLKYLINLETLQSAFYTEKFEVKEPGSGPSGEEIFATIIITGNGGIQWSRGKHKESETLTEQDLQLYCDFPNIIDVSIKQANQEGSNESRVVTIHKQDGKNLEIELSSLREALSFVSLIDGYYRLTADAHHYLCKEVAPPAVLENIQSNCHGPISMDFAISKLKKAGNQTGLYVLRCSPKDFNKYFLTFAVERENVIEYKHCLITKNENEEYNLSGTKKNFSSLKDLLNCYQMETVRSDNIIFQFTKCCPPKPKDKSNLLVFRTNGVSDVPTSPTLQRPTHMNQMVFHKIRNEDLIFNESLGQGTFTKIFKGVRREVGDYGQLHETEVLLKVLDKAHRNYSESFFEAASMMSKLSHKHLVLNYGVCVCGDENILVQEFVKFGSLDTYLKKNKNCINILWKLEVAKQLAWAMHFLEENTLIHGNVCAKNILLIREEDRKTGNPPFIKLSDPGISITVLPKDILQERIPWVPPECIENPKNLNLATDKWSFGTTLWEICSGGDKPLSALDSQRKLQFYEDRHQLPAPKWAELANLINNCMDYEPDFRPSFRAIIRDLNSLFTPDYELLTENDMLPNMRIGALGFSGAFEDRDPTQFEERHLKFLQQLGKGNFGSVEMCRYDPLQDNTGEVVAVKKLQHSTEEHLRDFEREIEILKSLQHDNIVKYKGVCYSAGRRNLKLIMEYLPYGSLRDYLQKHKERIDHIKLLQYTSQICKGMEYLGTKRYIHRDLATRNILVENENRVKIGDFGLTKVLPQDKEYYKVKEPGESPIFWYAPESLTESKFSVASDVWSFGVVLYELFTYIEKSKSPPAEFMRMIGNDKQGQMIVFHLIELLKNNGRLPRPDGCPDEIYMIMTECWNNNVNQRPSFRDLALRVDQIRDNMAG

For `Cc1nc(Nc2ccc(N3CCN(C)CC3)cc2)nc(Nc2cccc(S(=O)(=O)NC(C)C)c2)c1C`, the “DSF ΔTm” value (BRD4) was 5.3 ± 0.064 °C, the IC50 (BRD4) was 370 nM and the IC50 (HEK293) was 120000 nM.
In the case of `CCOC(=O)c1cnc(Nc2ccc(N3CCN(C)CC3)cc2)nc1Nc1cccc(S(=O)(=O)NC(C)(C)C)c1`, the IC50 (BRD4) is reported as > 20000 nM.
For `CCCN(C)c1ccc(Nc2nc3c(c(Nc4cccc(S(N)(=O)=O)c4)n2)COC3)cc1`, the “DSF ΔTm” value (BRD4) was 2.9 ± 0.084 °C and the IC50 (BRD4) was 2300 nM.
For `Cc1cnc(Nc2ccc(C(=O)NC3CCN(C)CC3)c(F)c2)nc1Nc1ccc(Cl)c(NS(=O)(=O)C(C)(C)C)c1`, the IC50 (UKE-1) was 225 nM, the IC50 (MV4-11 AML cells [1]) was 38.3 nM and the IC50 (BRDT-1) was 22.5 nM. It also gave an IC50 (BRD4-1) of 9.55 nM.
In the case of `Cc1cnc(Nc2ccc(N3CCN(C)CC3)cc2)nc1Nc1cccc(NS(=O)(=O)C(C)(C)C)c1`, the IC50 (MV4-11 AML cells [1]) is reported as 56.7 nM, the IC50 (BRD4-2) is reported as 23.6 nM and the IC50 (MM.1S cells; [3]) is reported as 399 nM.
For `CC[C@@H]1C(=O)N(C)c2cnc(Nc3ccc(C(=O)NC4CCN(C)CC4)cc3OC)nc2N1C1CCCC1` [BI2536], the “downregulation of c-Myc in MM.1S cells” value (c-Myc) is given as “strong downregulation of c-Myc”.
In the case of `Cc1cnc(Nc2ccc(N3CCN(C)CC3)cc2)nc1Nc1ccc(Cl)c(NS(=O)(=O)C(C)(C)C)c1` [SG3-014B2.MSA], the Solubility (Solubility in PBS buffer; in 1 mL PBS buffer (15% HPCD)) is reported as > 14.4 mg/mL and the Solubility (Solubility in PBS buffer; in 1 mL PBS buffer (~9.3% DMSO)) is reported as 0.416 mg.
For `Cc1cnc(Nc2ccc(N3CCN(C)CC3)cc2)nc1Nc1cccc(S(=O)(=O)NC(C)(C)C)c1` [TG101209, reference compound], the “DSF ΔTm” value (BRD4) is given as 6.83 ± 0.129 °C and 7.55 ± 0.154 °C and the “downregulation of c-Myc in MM.1S cells” value (c-Myc) is given as “strong downregulation of c-Myc”.
For `Cc1cnc(Nc2ccc(OCCN3CCCC3)cc2)nc1Nc1cccc(S(=O)(=O)NC(C)(C)C)c1` [TG101348], the “downregulation of c-Myc in MM.1S cells” value (c-Myc) is listed as “strong downregulation of c-Myc” and the IC50 (MV4-11 AML cells [2]) is listed as 79 nM.
`Cc1cnc(Nc2ccc(N3CCN(C)CC3)cc2)nc1Nc1ccc(Cl)c(NS(=O)(=O)C(C)(C)C)c1` [drawing 146] gave an IC50 (MM.1S cells; read-out: MM.1S IC50) of 142 nM.
With `Cc1cnc(Nc2ccc(N3CCN(C)CC3)c(F)c2)nc1Nc1cccc(NS(=O)(=O)C(C)(C)C)c1` [drawing 167] the “DSF ΔTm” value (BRD4) was 11.2 ± 0.15 °C and the IC50 (MM.1S cells; read-out: MM.1S IC50) was 146 nM.
For `Cc1cnc(Nc2ccc(N3CCN(C)CC3)c(F)c2)nc1Nc1ccc(Cl)c(NS(=O)(=O)C(C)(C)C)c1` [drawing 168], the “DSF ΔTm” value (BRD4) was 12.6 ± 0.069 °C and the IC50 (MM.1S cells; read-out: MM.1S IC50) was 64 nM and 66 nM.
For `Cc1cnc(Nc2ccc(N3CCN(C)CC3)c(F)c2)nc1Nc1ccc(Cl)c(NS(=O)(=O)C(C)(C)C)c1` [drawing 230], the IC50 (UKE-1) was 294 nM, the IC50 (JAK2) was 3.36 nM and the “DSF: BRD4 ΔTm” value (BRD4) was 12.6 ± 0.06 °C. For the same compound, the IC50 (Saos-2) was 320 nM, the IC50 (MV4-11 AML cells [1]) was 53.2 nM and the IC50 (MM.1S cells; [3]) was 66 nM.
With `Cc1cnc(Nc2ccc(N3CCN(C)CC3)c(F)c2)nc1Nc1cccc(NS(=O)(=O)C(C)(C)C)c1` [drawing 231] the IC50 (UKE-1) was 200 nM, the “DSF: BRD4 ΔTm” value (BRD4) was 11.2 ± 0.15 °C and the IC50 (Saos-2) was 133 nM. For the same compound, the IC50 (MV4-11 AML cells [1]) was 26.8 nM and the IC50 (MM.1S cells; [3]) was 146 nM.
With `Cc1cnc(Nc2ccc(N3CCN(C)CC3)cc2)nc1Nc1ccc(Cl)c(NS(=O)(=O)C(C)(C)C)c1` [drawing 232] the IC50 (BRD4-2) was 27.3 nM, the IC50 (MM.1S cells; [3]) was 142 nM and the IC50 (BRD4-1) was 25 nM.
